{"source": "patent US20150284305A1", "about": "“FLUORINE-CONTAINING COMPOUND AND METHOD FOR PRODUCING SAME” (Asahi Glass Company, Limited, priority 2012, published 2015)", "assay": "Solubility test: 20 mg sample in 10 g solvent, evaluated visually", "type": "physicochemical", "conditions": "20 mg in 10 g solvent (0.2 mass %), room temperature / 25° C., visual", "method": "For evaluating the applicability thereof to a wet process, the compound to be analyzed was tested in a dissolution test in various solvents. As a comparative case, anthracene was tested for the dissolution test.\nConcretely, 20 mg of the sample was weighed, and the solubility thereof (0.2 mass %) in 10 g of a solvent at room temperature was visually evaluated.\nIn Table 1, A means soluble, and B means insoluble. The standard of “soluble” was set as the case where the compound dissolved in an amount of 0.2% by mass or more at a solvent temperature of 25° C."}
{"smiles": "c1ccc2cc3ccccc3cc2c1", "note": "[Comparative Example 3, Anthracene]", "values": [{"measurement": "Solubility Test Cyclohexane", "setting": "cyclohexane", "result": "B (B means insoluble)"}, {"measurement": "Solubility Test Hexane", "setting": "hexane", "result": "B (B means insoluble)"}]}
